Measured values: US11963960B2 (Flash Therapeutics, LLC, priority 2020, dated 2024)

biological target: N-terminally GST-tagged HCK (75-526) (Homo sapiens (Human), UniProt P08631); assay: HCK Kinase Assay (ProFluor Src-Family Kinase Assay); type: biochemical; details: HCK inhibitory activity, 50 μM ATP; read-out: HCK Activity
Outline: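 ProFluor Src-family format: after the kinase reaction, protease solution was added for 60 min at room temperature (22-25° C), then stabilizer.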

Sequence of N-terminally GST-tagged HCK (75-526) (P08631 75-526): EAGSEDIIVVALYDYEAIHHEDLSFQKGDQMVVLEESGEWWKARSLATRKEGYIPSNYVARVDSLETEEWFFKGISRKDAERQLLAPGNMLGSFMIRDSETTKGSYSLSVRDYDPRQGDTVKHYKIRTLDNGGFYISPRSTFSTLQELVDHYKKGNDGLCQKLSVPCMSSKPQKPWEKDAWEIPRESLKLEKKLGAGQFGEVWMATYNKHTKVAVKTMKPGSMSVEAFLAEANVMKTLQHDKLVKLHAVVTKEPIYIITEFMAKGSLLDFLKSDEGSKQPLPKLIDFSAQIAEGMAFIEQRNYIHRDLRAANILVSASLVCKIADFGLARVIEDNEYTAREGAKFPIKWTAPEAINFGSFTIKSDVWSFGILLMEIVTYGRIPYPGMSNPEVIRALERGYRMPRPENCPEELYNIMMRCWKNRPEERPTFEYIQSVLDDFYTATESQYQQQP

IC50 | Structure (SMILES)
< 50 nM | CN1CCC([C@H]2OC[C@@H](n3cc(-c4ccc(Oc5ccccc5)cc4)c4c(N)ncnc43)CO2)CC1 [Example 146, 7-((2s,5s)-2-(1-Methylpiperidin-4-yl)-1,3-dioxan-5-yl)-5-(4-phenoxyphenyl)-7H-pyrrolo[2,3-d]pyrimidin-4-amine]
< 50 nM | CN1CCC(N2CCC(n3nc(-c4ccc(Oc5ccccc5)cc4F)c4c(N)ncnc43)CC2)CC1 [Example 147, 3-(2-fluoro-4-phenoxyphenyl)-1-(1′-methyl-[1,4′-bipiperidin]-4-yl)-1H-pyrazolo[3,4-d]pyrimidin-4-amine]
50 to 250 nM | CN1CCC(N2CCC(n3nc(-c4ccc(NC(=O)Nc5cc(C(C)(C)C)on5)cc4)c4c(N)ncnc43)CC2)CC1 [Example 148, 1-(4-(4-Amino-1-(1′-methyl-[1,4′-bipiperidin]-4-yl)-1H-pyrazolo[3,4-d]pyrimidin-3-yl)phenyl)-3-(5-(tert-butyl)isoxazol-3-yl)urea]
< 50 nM | COc1cc(-c2cn(C3CCN(C4CCN(C)CC4)CC3)c3ncnc(N)c23)ccc1Oc1ccccc1 [Example 149, 5-(3-methoxy-4-phenoxyphenyl)-7-(1′-methyl-[1,4′-bipiperidin]-4-yl)-7H-pyrrolo[2,3-d]pyrimidin-4-amine]
< 50 nM | COc1cc(-c2cn(C3CCN(C4CCNCC4)CC3)c3ncnc(N)c23)ccc1Oc1ccccc1 [Example 150, 7-([1,4′-bipiperidin]-4-yl)-5-(3-methoxy-4-phenoxyphenyl)-7H-pyrrolo[2,3-d]pyrimidin-4-amine]
< 50 nM | CN1CCC(N2CCC(n3cc(-c4ccc(NC(=O)Nc5cc(C(C)(C)C)on5)cc4)c4c(N)ncnc43)CC2)CC1 [Example 151, 1-(4-(4-amino-7-(1′-methyl-[1,4′-bipiperidin]-4-yl)-7H-pyrrolo[2,3-d]pyrimidin-5-yl)phenyl)-3-(5-(tert-butyl)isoxazole-3-yl)urea]
< 50 nM | CCN1CCC(N2CCC(n3nc(-c4ccc(Oc5ccccc5)cc4F)c4c(N)ncnc43)CC2)CC1 [Example 152, 1-(1′-ethyl-[1,4′-bipiperidin]-4-yl)-3-(2-fluoro-4-phenoxyphenyl)-1H-pyrazolo[3,4-d]pyrimidin-4-amine]
< 50 nM | CC(C)N1CCC(N2CCC(n3nc(-c4ccc(Oc5ccccc5)cc4F)c4c(N)ncnc43)CC2)CC1 [Example 153, 3-(2-fluoro-4-phenoxyphenyl)-1-(1′-isopropyl-[1,4′-bipiperidin]-4-yl)-1H-pyrazolo[3,4-d]pyrimidin-4-amine]
< 50 nM | C[C@H]1CC(N2CCC(n3cc(-c4ccc(Oc5ccccc5)cc4)c4c(N)ncnc43)CC2)CCN1 (stereo partly drawn) [Example 154, 7-((2′S)-2′-methyl-[1,4′-bipiperidin]-4-yl)-5-(4-phenoxyphenyl)-7H-pyrrolo[2,3-d]pyrimidin-4-amine]
< 50 nM | C[C@H]1CC(N2CCC(n3nc(-c4ccc(Oc5ccccc5)cc4F)c4c(N)ncnc43)CC2)CCN1 (stereo partly drawn) [Example 155, 3-(2-fluoro-4-phenoxyphenyl)-1-((2′S)-2′-methyl-[1,4′-bipiperidin]-4-yl)-1H-pyrazolo[3,4-d]pyrimidin-4-amine]
< 50 nM | C[C@H]1CC(N2CCC(n3cc(-c4ccc(NC(=O)Nc5cc(C(C)(C)C)on5)cc4)c4c(N)ncnc43)CC2)CCN1 (stereo partly drawn) [Example 156, 1-(4-(4-amino-7-((2′S)-2′-methyl-[1,4′-bipiperidin]-4-yl)-7H-pyrrolo[2,3-d]pyrimidin-5-yl)phenyl)-3-(5-(tert-butyl)isoxazol-3-yl)urea]
< 50 nM | Nc1ncnc2c1c(-c1ccc(Oc3ccccc3)cc1)cn2C1CCN(C2CCNC(CO)C2)CC1 (stereo not drawn) [Example 157, (4-(4-amino-5-(4-phenoxyphenyl)-7H-pyrrolo[2,3-d]pyrimidin-7-yl)-[1,4′-bipiperidin]-2′-yl)methanol]
50 to 250 nM | COC(=O)C1CC(N2CCC(n3cc(-c4ccc(Oc5ccccc5)cc4)c4c(N)ncnc43)CC2)CCN1 (stereo not drawn) [Example 158, methyl 4-(4-amino-5-(4-phenoxyphenyl)-7H-pyrrolo[2,3-d]pyrimidin-7-yl)-[1,4′-bipiperidine]-2′-carboxylate]
< 50 nM | Nc1ncnc2c1c(-c1ccc(Oc3ccccc3)cc1)cn2C1CCN(C2CCCC(N)C2)CC1 (stereo not drawn) [Example 159, 7-(1-(3-aminocyclohexyl)piperidin-4-yl)-5-(4-phenoxyphenyl)-7H-pyrrolo[2,3-d]pyrimidin-4-amine]
50 to 250 nM | CN1CCCC(N2CCC(n3cc(-c4ccc(Oc5ccccc5)cc4)c4c(N)ncnc43)CC2)C1 (stereo not drawn) [Example 160, 7-(1′-methyl-[1,3′-bipiperidin]-4-yl)-5-(4-phenoxyphenyl)-7H-pyrrolo [2,3-d] pyrimidin-4-amine]
< 50 nM | Nc1ncnc2c1c(-c1ccc(Oc3ccccc3)cc1)cn2C1CCN(C(CO)CO)CC1 [Example 161, 2-(4-(4-amino-5-(4-phenoxyphenyl)-7H-pyrrolo[2,3-d]pyrimidin-7-yl)piperidin-1-yl)propane-1,3-diol]
< 50 nM | NCC1OCC(N2CCC(n3cc(-c4ccc(Oc5ccccc5)cc4)c4c(N)ncnc43)CC2)CO1 (stereo not drawn) [Example 162, 7-(1-(2-(aminomethyl)-1,3-dioxan-5-yl)piperidin-4-yl)-5-(4-phenoxyphenyl)-7H-pyrrolo[2,3-d]pyrimidin-4-amine]
50 to 250 nM | CN1CCN([C@H]2CC[C@@H](c3nc(-c4ccc(Oc5ccccc5)cc4F)c4c(N)ncnn43)CC2)CC1 [Example 164, 5-(2-Fluoro-4-phenoxyphenyl)-7-((cis)-4-(4-methylpiperazin-1-yl)cyclohexyl)imidazo[5,1-f][1,2,4]triazin-4-amine]
250 to 10000 nM | C[C@H]1CN([C@H]2CC[C@@H](c3nc(-c4ccc(Oc5ccccc5)cc4F)c4c(N)ncnn43)CC2)CCN1 [Example 166, 5-(2-fluoro-4-phenoxyphenyl)-7-((cis)-4-((S)-3-methylpiperazin-1-yl)cyclohexyl)imidazo[5,1-f][1,2,4]triazin-4-amine]
250 to 10000 nM | CN1CCN([C@H]2CC[C@@H](c3cc(-c4ccc(Oc5ccccc5)cc4)c4c(N)ncnn43)CC2)CC1 [Example 167, 7-((cis)-4-(4-Methylpiperazin-1-yl)cyclohexyl)-5-(4-phenoxyphenyl)pyrrolo[2,1-f][1,2,4]triazin-4-amine]
< 50 nM | CN1CCN([C@H]2CC[C@H](c3cc(-c4ccc(Oc5ccccc5)cc4)c4c(N)ncnn43)CC2)CC1 [Example 168, 7-((trans)-4-(4-Methylpiperazin-1-yl)cyclohexyl)-5-(4-phenoxyphenyl)pyrrolo[2,1-f][1,2,4]triazin-4-amine]
< 50 nM | C[C@H]1CN([C@H]2CC[C@H](c3cc(-c4ccc(Oc5ccccc5)cc4)c4c(N)ncnn43)CC2)CCN1 [Example 169, 7-((trans)-4-((S)-3-Methylpiperazin-1-yl)cyclohexyl)-5-(4-phenoxyphenyl)pyrrolo[2,1-f][1,2,4]triazin-4-amine]
50 to 250 nM | C[C@H]1CN([C@H]2CC[C@@H](c3cc(-c4ccc(Oc5ccccc5)cc4)c4c(N)ncnn43)CC2)CCN1 [Example 170, 7-((cis)-4-((S)-3-Methylpiperazin-1-yl)cyclohexyl)-5-(4-phenoxyphenyl)pyrrolo[2,1-f][1,2,4]triazin-4-amine]
< 50 nM | CN1CCN([C@H]2CC[C@H](c3nc(-c4ccc(Oc5ccccc5)cc4)c4c(N)nccn43)CC2)CC1 [Example 173, 3-((trans)-4-(4-Methylpiperazin-1-yl)cyclohexyl)-1-(4-phenoxyphenyl)imidazo[1,5-a]pyrazin-8-amine]
250 to 10000 nM | CN1CCN([C@H]2CC[C@@H](c3nc(-c4ccc(Oc5ccccc5)cc4)c4c(N)nccn43)CC2)CC1 [Example 174, 3-((cis)-4-(4-Methylpiperazin-1-yl)cyclohexyl)-1-(4-phenoxyphenyl)imidazo[1,5-a]pyrazin-8-amine]
< 50 nM | CN1CCN([C@H]2CC[C@H](c3nc(-c4ccc(NC(=O)Nc5cc(C(C)(C)C)on5)cc4)c4c(N)nccn43)CC2)CC1 [Example 175, 1-(4-(8-amino-3-((trans)-4-(4-methylpiperazin-1-yl)cyclohexyl)imidazo[1,5-a]pyrazin-1-yl)phenyl)-3-(5-(tert-butyl)isoxazol-3-yl)urea]
250 to 10000 nM | CN1CCN([C@H]2CC[C@@H](c3cn(-c4ccc(Oc5ccccc5)cc4)c4c(N)ncnc43)CC2)CC1 [Example 176, 7-((cis)-4-(4-methylpiperazin-1-yl)cyclohexyl)-5-(4-phenoxyphenyl)-5H-pyrrolo[3,2-d]pyrimidin-4-amine]
< 50 nM | CN1CCN([C@H]2CC[C@H](c3cn(-c4ccc(Oc5ccccc5)cc4)c4c(N)ncnc43)CC2)CC1 [Example 177, 7-((trans)-4-(4-methylpiperazin-1-yl)cyclohexyl)-5-(4-phenoxyphenyl)-5H-pyrrolo[3,2-d]pyrimidin-4-amine]

Structure (SMILES) | IC50
CN1CCN([C@H]2CC[C@H](c3cc(-c4ccc(NC(=O)Nc5cc(C(C)(C)C)on5)cc4)c4c(N)ncnn43)CC2)CC1 [Example 171] | < 50 nM
CN1CCN([C@H]2CC[C@@H](c3cc(-c4ccc(NC(=O)Nc5cc(C(C)(C)C)on5)cc4)c4c(N)ncnn43)CC2)CC1 [Example 172] | < 50 nM
